Assay results taken from patent US9850283B2, “Macrocyclic inhibitors of the PD-1/PD-L1 and CD80(B7-1)/PD-L1 protein/protein interactions” (BRISTOL-MYERS SQUIBB COMPANY, priority 2013, dated 2017).
Like-named read-outs stand apart in the source and are kept apart here. Positions of bridges follow the written chain, without caps; N, C: chain ends. Non-standard residues stand in square brackets, D forms with d. Residues, ends and D or L forms follow the SMILES beside them. ξ: configuration not given here. Ala(benzothiazol-2-yl) = N[C@@H](Cc1nc2ccccc2s1)C(=O)O; Pro(cis-4-Ph) = O=C(O)[C@@H]1C[C@H](c2ccccc2)CN1; Phe(4-CONH2) = NC(=O)c1ccc(C[C@H](N)C(=O)O)cc1; Bta = N[C@@H](Cc1csc2ccccc12)C(=O)O; Hyp = O=C(O)[C@@H]1C[C@@H](O)CN1; NMeF = CN[C@@H](Cc1ccccc1)C(=O)O; dHyp = O=C(O)[C@H]1C[C@H](O)CN1; NMeNle = CCCC[C@H](NC)C(=O)O; NMeM = CN[C@@H](CCSC)C(=O)O; NMeS = CN[C@@H](CO)C(=O)O; NMeA = CN[C@@H](C)C(=O)O; Dab = NCC[C@H](N)C(=O)O; Dap = NC[C@H](N)C(=O)O; ξC = NC(CS)C(=O)O; Sar = CNCC(=O)O

Key:
Human PD-L1/PD-1 = biological target: T1, Human PD-L1/PD-1 (Homo sapiens, UniProt Q9NZQ7); assay: HTRF PD-1-Ig/PD-L1-His binding assay (human PD-L1); conditions: cluster symbol; read-out: HTRF IC50 cluster
T1 construct: made in house; host or cells: HEK293T
T1 sequence (Q9NZQ7 with tags, fused parts or gaps): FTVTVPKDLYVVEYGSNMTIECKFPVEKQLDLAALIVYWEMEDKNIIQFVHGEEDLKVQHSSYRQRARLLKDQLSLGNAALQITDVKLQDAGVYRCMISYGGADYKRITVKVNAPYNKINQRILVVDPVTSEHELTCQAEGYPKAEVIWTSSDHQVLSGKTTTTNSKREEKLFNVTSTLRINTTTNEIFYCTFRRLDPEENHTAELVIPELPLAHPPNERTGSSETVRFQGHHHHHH
Outline: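 The time-resolved fluorescence signal comes from Eu-cryptate anti-Ig (1 nM) and APC anti-His (20 nM) antibodies bound to a PD-1-Ig/PD-L1-His complex. Both partners lack transmembrane regions.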

[1] = biological target: T2, LK35.2-hPD-L1 cells / PE-labeled PD-1-Ig (Homo sapiens, UniProt Q9NZQ7); assay: LK35.2-hPD-L1 cell binding high-content screening assay; type: cell-based
T2 construct: expressed in transfected cells; host or cells: LK35.2 mouse B cell line
T2 sequence (Q9NZQ7 19-290): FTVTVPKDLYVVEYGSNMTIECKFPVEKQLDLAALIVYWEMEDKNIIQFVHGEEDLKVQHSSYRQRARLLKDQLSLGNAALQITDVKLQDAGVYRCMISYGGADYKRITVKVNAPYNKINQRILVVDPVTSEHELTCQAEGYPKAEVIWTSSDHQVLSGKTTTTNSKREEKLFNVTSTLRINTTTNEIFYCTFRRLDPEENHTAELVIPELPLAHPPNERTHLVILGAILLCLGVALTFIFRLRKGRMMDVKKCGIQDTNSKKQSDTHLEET
Method: LK35.2-hPD-L1 Cell Binding High-Content Screening Assay. Phycoerythrin (PE) was covalently linked to the Ig epitope tag of human PD-1-Ig and fluorescently-labeled PD-1-Ig was used for binding studies with a mouse B cell line (LK35.2) stably over-expressing human PD-L1 (LK35.2-hPD-L1). Briefly, 3×10^3 LK35.2-hPD-L1 cells were seeded into 384 well plates in 20 ul of RPMI supplemented with 10% fetal calf serum and cultured overnight. 125 nl of compound was added to cells, followed by 5 ul of PE-labeled PD-1-Ig (1 nM final), diluted in RPMI supplemented with 10% fetal calf serum, followed by incubation at 37° C. for 1 h. […] Cells were washed 3× in 100 ul of dPBS followed by final addition of 15 ul of dPBS. Data was collected and processed using a Cell Insight NXT High Content Imager and associated software.

[2] = cluster symbol, cell line of CBA not given (LK35.2-hPD-L1 or 293T-hPD-L1), read-out: CBA IC50 cluster
[3] = cell binding assay, cell line not given, cluster symbol, read-out: CBA IC50 cluster

IC50 (Human PD-L1/PD-1)	IC50 [1, 2]	IC50 [1, 3]	IC50 ([1]; cell binding assay, cell line not given, value given instead of cluster, read-out: CBA IC50 value)	SMILES
0.385 to 6.74 nM	4.78 to 72.9 nM	–	–	CCCC[C@H]1C(=O)N(C)[C@@H](CCCC)C(=O)N[C@@H](CCCNC(=N)N)C(=O)N[C@H](C(=O)NCC(N)=O)CSCC(=O)N[C@@H](Cc2ccccc2)C(=O)N(C)[C@@H](C)C(=O)N[C@@H](CC(N)=O)C(=O)N2CCC[C@H]2C(=O)N[C@@H](Cc2cnc[nH]2)C(=O)N[C@@H](CC(C)C)C(=O)N(C)CC(=O)N[C@@H](Cc2c[nH]c3ccccc23)C(=O)N[C@@H](CCCCN)C(=O)N[C@@H](Cc2c[nH]c3ccccc23)C(=O)N1C [Example 1069] ({CH2CO}-F[NMeA]NPHL[Sar]WKW[NMeNle][NMeNle]RCG-NH2; thioether N-14)
6.76 to 30.3 nM	–	4.78 to 72.9 nM	–	CCCC[C@H]1C(=O)N(C)CC(=O)N[C@@H](CC(=O)O)C(=O)N[C@@H](C(C)C)C(=O)N(C)[C@@H](Cc2ccccc2)C(=O)N[C@@H](Cc2ccc(O)cc2)C(=O)N(C)CC(=O)N[C@@H](Cc2c[nH]c3ccccc23)C(=O)N[C@@H](Cc2ccc(O)cc2)C(=O)N[C@@H](CC(C)C)C(=O)N[C@H](C(=O)NCC(N)=O)CSCC(=O)N[C@@H](Cc2ccccc2)C(=O)N(C)[C@@H](Cc2cccc3ccccc23)C(=O)N1C (single isomer, unassigned) [Example 3585-B]
> 30.5 nM	–	> 74.3 nM	–	CCCC[C@H]1C(=O)N(C)CC(=O)N[C@@H](CC(=O)O)C(=O)N[C@@H](C(C)C)C(=O)N(C)[C@@H](Cc2ccccc2)C(=O)N[C@@H](Cc2ccc(O)cc2)C(=O)N(C)CC(=O)N[C@@H](Cc2c[nH]c3ccccc23)C(=O)N[C@@H](Cc2nc3ccccc3s2)C(=O)N[C@@H](CC(C)C)C(=O)N[C@H](C(=O)NCC(N)=O)CSCC(=O)N[C@@H](Cc2ccccc2)C(=O)N(C)[C@@H](Cc2ccccc2)C(=O)N1C [Example 3558] ({CH2CO}-F[NMeF][NMeNle][Sar]DV[NMeF]Y[Sar]W[Ala(benzothiazol-2-yl)]LCG-NH2; thioether N-13)
–	–	0.158 to 4.71 nM	–	CCCC[C@H]1C(=O)N(C)CC(=O)N[C@@H](CC(=O)O)C(=O)N[C@@H](C(C)C)C(=O)N(C)[C@@H](Cc2ccccc2)C(=O)N[C@@H](Cc2ccc(O)cc2)C(=O)N2C[C@@H](O)C[C@@H]2C(=O)N[C@@H](Cc2c[nH]c3ccccc23)C(=O)N[C@@H](Cc2ccc(O)cc2)C(=O)N[C@@H](CC(C)C)C(=O)N[C@H](C(=O)NCC(N)=O)CSCC(=O)N[C@@H](Cc2ccccc2)C(=O)N(C)[C@@H](Cc2ccccc2)C(=O)N1C [Example 3583] ({CH2CO}-F[NMeF][NMeNle][Sar]DV[NMeF]Y[dHyp]WYLCG-NH2; thioether N-13)

Continued, compound first:

SMILES	IC50 (Human PD-L1/PD-1)	IC50 [1, 2]	IC50 [1, 3]	IC50 ([1]; cell binding assay, cell line not given, value given instead of cluster, read-out: CBA IC50 value)
CCCC[C@H]1C(=O)N(C)[C@@H](CCCC)C(=O)N[C@@H](CCN)C(=O)N[C@H](C(=O)NCC(N)=O)CSCC(=O)N[C@@H](Cc2ccc(O)cc2)C(=O)N(C)[C@@H](C)C(=O)N[C@@H](CCN)C(=O)N2CCC[C@H]2C(=O)N[C@@H](Cc2c[nH]cn2)C(=O)N[C@@H](CCC(=O)O)C(=O)N2C[C@H](O)C[C@H]2C(=O)N[C@@H](Cc2c[nH]c3ccccc23)C(=O)N[C@@H](C(C)C)C(=O)N[C@@H](Cc2c[nH]c3ccccc23)C(=O)N1C [Example 5091] ({CH2CO}-Y[NMeA][Dab]PHE[Hyp]WVW[NMeNle][NMeNle][Dab]CG-NH2; thioether N-14)	6.76 to 30.3 nM	–	4.78 to 72.9 nM	–
CCCC[C@H]1C(=O)N(C)[C@@H](COCC)C(=O)N[C@@H](CCCNC(=N)N)C(=O)NC(C(=O)NCC(N)=O)CSCC(=O)N[C@@H](Cc2ccc(O)cc2)C(=O)N(C)[C@@H](C)C(=O)N[C@@H](CC(N)=O)C(=O)N2CCC[C@H]2C(=O)N[C@@H](Cc2cnc[nH]2)C(=O)N[C@@H](CC(C)C)C(=O)N2CCC[C@H]2C(=O)N[C@@H](Cc2c[nH]c3ccccc23)C(=O)N[C@@H](CO)C(=O)N[C@@H](Cc2csc3ccccc23)C(=O)N1C (stereo partly shown) [Example 9040] ({CH2CO}-Y[NMeA]NPHLPWS[Bta][NMeNle][NMeS](Et)R[ξC]G-NH2; thioether N-14)	0.385 to 6.74 nM	–	0.158 to 4.71 nM	–
CCCC[C@H]1C(=O)N(C)[C@@H](CCCC)C(=O)N[C@@H](CCCNC(=N)N)C(=O)N[C@H](C(=O)NCC(N)=O)CSCC(=O)N[C@@H](Cc2ccc(O)cc2)C(=O)N(C)[C@@H](C)C(=O)N[C@@H](CC(N)=O)C(=O)N2CCC[C@H]2C(=O)N[C@@H](Cc2cnc[nH]2)C(=O)N[C@@H](CC(C)C)C(=O)N2C[C@H](O)C[C@H]2C(=O)N[C@@H](Cc2c[nH]c3ccccc23)C(=O)N[C@@H](CO)C(=O)N[C@@H](Cc2c[nH]c3ccccc23)C(=O)N1C [Example 1119]	6.76 to 30.3 nM	0.158 to 4.71 nM	–	–
CC(C)C[C@@H]1NC(=O)[C@H](Cc2c[nH]cn2)NC(=O)[C@@H]2CCCN2C(=O)[C@H](CC(N)=O)NC(=O)[C@H](C)N(C)C(=O)[C@H](Cc2ccccc2)NC(=O)CSC[C@@H](C(=O)NCC(N)=O)NC(=O)[C@H](CCCNC(=N)N)NC(=O)[C@H](C)N(C)C(=O)[C@H](Cc2ccc(-c3ccccc3)cc2)NC(=O)[C@H](Cc2c[nH]c3ccccc23)NC(=O)[C@H](CO)NC(=O)[C@H](Cc2c[nH]c3ccccc23)NC(=O)CN(C)C1=O [Example 1032] (HELM PEPTIDE1{[O=C(C[*:3])[*:2]].F.[meA].N.P.H.L.[Sar].W.S.W.[O=C([C@H](Cc1ccc(-c2ccccc2)cc1)N[*:1])[*:2]].[meA].R.C.G.[am]}$PEPTIDE1,PEPTIDE1,1:R3-15:R3$$$V2.0)	> 30.5 nM	> 74.3 nM	–	–
CCCC[C@H]1C(=O)N(C)[C@@H](CCCC)C(=O)N[C@@H](CCCNC(=N)N)C(=O)N[C@H](C(=O)NCC(N)=O)CSCC(=O)N[C@@H](Cc2ccc(C(N)=O)cc2)C(=O)N(C)[C@@H](C)C(=O)N[C@@H](CC(N)=O)C(=O)N2CCC[C@H]2C(=O)N[C@@H](CN)C(=O)N[C@@H](CC(C)C)C(=O)N2C[C@H](O)C[C@H]2C(=O)N[C@@H](Cc2c[nH]c3ccccc23)C(=O)N[C@@H](CO)C(=O)N[C@@H](Cc2c[nH]c3ccccc23)C(=O)N1C [Example 7041] ({CH2CO}-[Phe(4-CONH2)][NMeA]NP[Dap]L[Hyp]WSW[NMeNle][NMeNle]RCG-NH2; thioether N-14)	6.76 to 30.3 nM	–	4.78 to 72.9 nM	–
CCCC[C@H]1C(=O)N(C)[C@@H](CCCC)C(=O)N[C@@H](CCC(=O)O)C(=O)N[C@H](C(=O)NCC(N)=O)CSCC(=O)N[C@@H](Cc2ccc(O)cc2)C(=O)N(C)[C@@H](C)C(=O)N[C@@H](CC(=O)O)C(=O)N2CCC[C@H]2C(=O)N[C@@H](Cc2c[nH]cn2)C(=O)N[C@@H](CCCCN)C(=O)N2C[C@@H](c3ccccc3)C[C@H]2C(=O)N[C@@H](Cc2c[nH]c3ccccc23)C(=O)N[C@@H](CCCCN)C(=O)N[C@@H](Cc2c[nH]c3ccccc23)C(=O)N1C [Example 13006] ({CH2CO}-Y[NMeA]DPHK[Pro(cis-4-Ph)]WKW[NMeNle][NMeNle]ECG-NH2; thioether N-14)	–	–	–	1.46 nM
CCCC[C@H]1C(=O)N[C@@H](CCCNC(=N)N)C(=O)NC(C(=O)NCC(N)=O)CSCC(=O)N[C@@H](Cc2ccc(O)cc2)C(=O)N(C)[C@@H](C)C(=O)N[C@@H](CC(N)=O)C(=O)N2CCC[C@H]2C(=O)N[C@@H](CN)C(=O)N[C@@H](CC(C)C)C(=O)N2CCC[C@H]2C(=O)N[C@@H](Cc2c[nH]c3ccccc23)C(=O)N[C@@H](CO)C(=O)N[C@@H](Cc2c[nH]c3ccccc23)C(=O)N(C)[C@@H](CCSC)C(=O)N1C (stereo partly shown) [Example 9097] ({CH2CO}-Y[NMeA]NP[Dap]LPWSW[NMeM][NMeNle]R[ξC]G-NH2; thioether N-14)	–	–	4.78 to 72.9 nM	–
